Target: T1, kappa-opioid receptor (KOP) (Homo sapiens, UniProt P41145)
T1 construct: gene OPRK1
Assay: FLIM in live cells: blocks the dynorphin A-induced change of KOP-eGFP lifetime
Format: cell-based

T1 sequence (P41145 whole entry): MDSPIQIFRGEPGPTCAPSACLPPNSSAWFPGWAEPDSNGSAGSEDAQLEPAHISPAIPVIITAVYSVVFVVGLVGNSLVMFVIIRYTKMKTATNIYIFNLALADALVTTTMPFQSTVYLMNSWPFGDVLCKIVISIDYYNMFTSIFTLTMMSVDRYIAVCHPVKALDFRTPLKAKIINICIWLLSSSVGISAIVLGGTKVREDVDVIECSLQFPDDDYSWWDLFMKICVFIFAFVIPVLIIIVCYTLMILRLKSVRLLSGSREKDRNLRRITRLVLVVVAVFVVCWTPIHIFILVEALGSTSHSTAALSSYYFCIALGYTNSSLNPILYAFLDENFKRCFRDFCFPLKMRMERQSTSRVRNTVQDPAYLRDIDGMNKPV

With CC(C)[C@@H](CN1CC[C@@](C)(c2cccc(O)c2)[C@@H](C)C1)NC(=O)[C@H]1Cc2ccc(O)cc2CN1 [JDTic] the “FLIM in live cells: blocks the dynorphin A-induced change of KOP-eGFP lifetime” value was “both NTX and the KOP-selective antagonist JDTic blocked this effect, suggesting that DynA binds to KOP-eGFP”.

Reference: PMC11586411 (Translational Psychiatry, 2023)
